For data set [1] the following is noted: after removal of the galactopyranoside by β-gal; cited from earlier work.
The nature of data set [2]: Stability constants of the gadolinium complex by potentiometric titration (BEST program). It is filed as physicochemical. The source says: Presently, there are two ways for calculating the thermodynamic stability constant of a metal complex by the potentiometric titration. […] The second method is suitable for the metal complex whose disassociation rate is less than 25% at low pH (such as pH 2). Take the metal complex of the present invention for instance, since it is not able to form a complex with the ligand at a pH value around 2, the thermodynamic stability constant thereof must be calculated by the previous method. The equation for the thermodynamic stability constant is defined as follows: [formula] where M represents the metal ion, L represents the ligand, and ML represents the metal complex. […] The thermodynamic stability constants for the metal complexes with CB-TTDA are determined from the titration data with the FORTRAN computer program BEST as shown in Table 2 with the reported thermodynamic stability constants of TTDA and DTPA, which are respectively reported by Y M. Wang et al., Inorganic Chemistry, vol. 44, page 382, 2005 and by P. Caravan et al., Inorganic Chemistry, vol. 44, page 2170, 2001. The conditional stability constant (Kcond) specifies the degree of metal chelation at a given pH and is defined as follows: […] [formula] where LT is the total concentration of the uncomplexed ligand, which is defined by the following equation: […]

A short description of data set [3]: Kinetic stability of the gadolinium complex toward zinc (II) transmetallation (relaxation rate ratio). As to conditions: incubation with zinc (II) for three days; phosphate buffer pH 7.4, 2.5 mM ZnCl2, 2.5 mM complex; 20 MHz, 37.0 ± 0.1° C. The format is physicochemical. The source says:
Among Zn^2+, Ca^2+, Cu^2+ and other metal ions, the zinc (II) combines a rather high concentration with high affinity toward poly(amino carboxylate) and may result in the gadolinium complex dissociation in vivo. […] The reciprocal of the longitudinal relaxation time is the water proton paramagnetic longitudinal relaxation rate, R1^P(t), where the ration of R1^P(t)|R1^P(0) represents the stability of the gadolinium complex for Zn^2+. […] Based on the mentioned principle, the kinetic stability of the gadolinium complex for zinc (II) could be measured. […] Laurent et al, Invest. Radiol., vol. 36, page 155, 2001.

A short description of data set [4]: Relaxivity r1 by 20 MHz relaxometer. It is filed as physicochemical. As to conditions: 37.0 ± 0.1° C., pH 7.4 ± 0.1. The source says:
Mainly, the relaxivity of paramagnetic metal complex is affected by two factors, the inner-sphere and the outer-sphere relaxivities. Due to the existence of inner water molecules of the ligand of the present invention, the relaxivity thereof is mainly affected by the change of the inner-sphere relaxivity rather than the outer-sphere relaxivity (the outer-sphere relaxivity is considered similar to other ligands). The relaxivity of [Gd(CB-TTDA)]^2− is higher than those of [Gd(TTDA)]^2− (Y. M. Wang et al., Inorganic Chemistry, vol. 44, page 382, 2005) and [Gd(DTPA)]^2− (P. Caravan et al., Inorganic Chemistry, vol. 44, page 2170, 2001).

For data set [5] the following is noted: incubation with zinc (II) for three days; 20 MHz, 37.0 ± 0.1° C.; reported by S. Laurent et al; cited from earlier work.
For data set [6] the following is noted: 20 MHz, 37.0 ± 0.1° C., pH 7.6 ± 0.1; P. Caravan et al.; cited from earlier work.
The conditions of data set [7]: cited from earlier work.
In another data set the target is human serum albumin (Homo sapiens, UniProt P02768). The following applies: bound to human serum albumin; cited from earlier work.
Chain of human serum albumin (P02768 25-609): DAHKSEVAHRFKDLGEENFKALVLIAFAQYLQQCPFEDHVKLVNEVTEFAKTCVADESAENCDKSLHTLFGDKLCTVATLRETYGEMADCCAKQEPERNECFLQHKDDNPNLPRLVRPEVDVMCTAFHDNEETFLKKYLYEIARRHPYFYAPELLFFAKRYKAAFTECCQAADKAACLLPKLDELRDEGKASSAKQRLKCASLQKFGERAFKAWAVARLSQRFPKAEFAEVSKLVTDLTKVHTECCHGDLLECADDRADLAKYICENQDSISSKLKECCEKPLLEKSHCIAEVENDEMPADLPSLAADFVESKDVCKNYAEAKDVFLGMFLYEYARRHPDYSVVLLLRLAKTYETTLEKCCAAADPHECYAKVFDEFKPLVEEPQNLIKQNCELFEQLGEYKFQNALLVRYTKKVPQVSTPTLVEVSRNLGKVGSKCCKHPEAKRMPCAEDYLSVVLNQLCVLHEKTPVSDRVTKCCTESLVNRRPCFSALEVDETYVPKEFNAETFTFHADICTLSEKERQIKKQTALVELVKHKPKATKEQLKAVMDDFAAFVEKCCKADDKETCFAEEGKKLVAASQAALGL

Where two headings read alike, the source gives them in different places.

For `O=C([O-])CN1CCN(CCO[C@@H]2O[C@H](CO)[C@H](O)[C@H](O)[C@H]2O)CCN(CC(=O)[O-])CCN(CC(=O)[O-])CC1.[Gd+3]` [Egad, 4,7,10-tri(aceticacid)-1-(2-β-galactopyranosylethoxy)-1,4,7,10-tetraazacyclododecane gadolinium (III)], the “number of inner space water molecules after hydrolysis by β-galactosidase” value in data set [1] is reported as 1.2.

As for `O=C([O-])CN(CCN(CC(=O)[O-])CC1(CN(CC(=O)[O-])CC(=O)[O-])CCC1)CC(=O)[O-].[Gd+3]` [[Gd(CB-TTDA)]^2−], in data set [2], the “calculated conditional stability constant of the gadolinium complex” value is listed as 15.83 and the “log KML [GdL]/[Gd][L] (thermodynamic stability constant)” value is recorded as 20.28. Besides, in data set [3], the “R1^p (t = 3days)/R1^p (t = 0 days)” value was determined as 47.4%. In addition, the “relaxivity r1” value in data set [4] is 4.12 ± 0.05 mM⁻¹ s⁻¹.

With `CNC[C@H](O)[C@@H](O)[C@H](O)[C@H](O)CO.CNC[C@H](O)[C@@H](O)[C@H](O)[C@H](O)CO.O=C([O-])CN(CCN(CC(=O)[O-])CC(=O)O)CCN(CC(=O)[O-])CC(=O)O.[Gd+3]` [[Gd(DTPA)]^2−, gadopentetate dimeglumine], the “calculated conditional stability constant of the gadolinium complex” value in data set [2] (pH = 7.4) was 18.14. Moreover, the “R1^p (t = 3days)/R1^p (t = 0 days)” value in data set [5] was 49.79%. In data set [6], the “relaxivity r1” value was 3.89 ± 0.03 mM⁻¹ s⁻¹. Besides, the relaxivity in data set [7] (20 MHz and 298 K) was 3.89 mM⁻¹ s⁻¹; in data set [7] (Fulvio U. et al., 1995) it was 3.77 mM⁻¹ s⁻¹. Further, the “relaxivity for the combination with human serum albumin” value at human serum albumin was 33.0 mM⁻¹ s⁻¹.

Source of the values: patent US8877163B2, “Cycloalkyl triamine pentacarboxylate as ligands for paramagnetic metal complexes” (Kaohsiung Medical University, priority 2006, dated 2014).
